Source: patent US20020132812A1, “Oral hypoglycaemic agents” (priority 2000, published 2002)
Structures can show the parent of a compound that is named as a salt.

melting point | SMILES
166 to 167 °C | c1ccc(C(CC2=NCCN2)c2cccc3c2OCC3)nc1 (stereo not shown) (as salt: fumarate) [Example 40, 1-(2,3-Dihydro-7-benzofuranyl)-2-(4,5-dihydro-2-imidazolyl)-1-(2-pyridyl)-ethane]
143 to 144 °C | Nc1cc2c(c(C(CC3=NCCN3)c3ccccn3)c1)OCC2 (stereo not shown) [Example 41, 7-[2-(4,5-Dihydro-1H-imidazol-2-yl)-1-pyridin-2-yl-ethyl]-2,3-dihydro-benzofuran-5-ylamine]
154 to 155 °C | Nc1cccc(C(CC2=NCCN2)c2ccccn2)c1 (stereo not shown) (as salt: fumarate) [Example 39, 3-[2-(4,5-Dihydro-1H-imidazol-2-yl)-1-pyridin-2-yl-ethyl]-phenylamine]
92 to 93 °C | FC(F)(F)c1cccc(C(CC2=NCCN2)c2ccc3ccccc3n2)c1 (stereo not shown) [Example 38, ethyl compound, 2-[2-(4,5-Dihydro-1H-imidazol-2-yl)-1-(3-trifluoromethyl-phenyl)-ethyl]-quinoline]
76.5 °C | FC(F)(F)c1cccc(/C(=C/C2=NCCN2)c2ccc3ccccc3n2)c1 [Example 38, vinyl compound, 2-[2-(4,5-Dihydro-1H-imidazol-2-yl)-1-(3-trifluoromethyl-phenyl)-vinyl]-quinoline]

More lines, now with the values behind:

SMILES | melting point
c1ccc(C(CC2=NCCN2)c2cccc(C3OCCO3)c2)nc1 (stereo not shown) (as salt: fumarate) [Example 33, 2-[2-(4,5-Dihydro-1H-imidazol-2-yl)-1-(3-[1,3]dioxolan-2-yl-phenyl)ethyl]pyridine] | 162 to 162.5 °C
Oc1cc2c(c(C(CC3=NCCN3)c3ccccn3)c1)OCC2 (stereo not shown) (as salt: hydroiodid) [Example 30, 7-[2-(4,5-Dihydro-1H-imidazol-2-yl)-1-pyridin-2-yl-ethyl]-2,3-dihydro-benzofuran-5-ol] | 186 to 187 °C
OCc1cccc(C(CC2=NCCN2)c2ccccn2)c1 (stereo not shown) (as salt: fumarate) [Example 35, 3-[2-(4,5-Dihydro-1H-imidazol-2-yl)-1-pyridin-2-yl-ethyl]-phenyl-methanol] | 114 to 115 °C
C(/C1=NCCN1)=C(/c1cccc(C2OCCO2)c1)c1ccccn1 (as salt: fumarate) [Example 32, 2-[2-(4,5-Dihydro-1H-imidazol-2-yl)-1-(3-[1,3]dioxolan-2-yl-phenyl)-vinyl]-pyridine] | 98 to 98.5 °C
O=Cc1cccc(C(CC2=NCCN2)c2ccccn2)c1 (stereo not shown) (as salt: fumarate) [Example 34, 3-[2-(4,5-Dihydro-1H-imidazol-2-yl)-1-pyridin-2-yl-ethyl]-benzaldehyde] | 138 to 139 °C
